pKi: −log10 of the molar value.
Target: T1, CX3CR1 (Homo sapiens, UniProt P49238)
T1 sequence (P49238 1-355): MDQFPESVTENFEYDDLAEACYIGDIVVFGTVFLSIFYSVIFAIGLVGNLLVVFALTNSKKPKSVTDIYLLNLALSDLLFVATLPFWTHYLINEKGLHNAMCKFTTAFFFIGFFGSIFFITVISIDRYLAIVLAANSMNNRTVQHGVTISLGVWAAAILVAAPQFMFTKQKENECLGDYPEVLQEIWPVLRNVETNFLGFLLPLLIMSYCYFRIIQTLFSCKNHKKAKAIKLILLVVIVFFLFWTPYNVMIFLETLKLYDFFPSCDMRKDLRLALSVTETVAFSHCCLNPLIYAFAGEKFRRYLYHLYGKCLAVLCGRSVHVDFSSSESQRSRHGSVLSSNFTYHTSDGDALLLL
Assay: [3H]AZD8797 competition binding, CHO-hCX3CR1 membranes
Set-up: host or cells: CHO-K1
Conditions: 2 nM [3H]AZD8797, n=7
Protocol: Adherent CHO-K1 cells stably expressing human CX3CR1 (CHO-hCX3CR1) were grown in F12 medium with GlutaMAX, 10% FBS (Sigma–Aldrich) and 400 μg·ml^−1 geneticin and harvested at 80% confluency. Cells were washed in PBS and lysed with an Ultra-Turrax Homogenizer in 50 mM Tris/HCl (pH 7.4) and 1 mM EDTA with Complete™ protease inhibitor (Roche). […] Protein concentration was determined using the BCA method (Thermo Fisher Scientific). […] The filter plate was washed in ice-cold 25 mM HEPES (pH 7.4), 5 mM MgCl2, 1 mM CaCl2 and 500 mM NaCl and dried at 50°C for 1 h. Scintillation cocktail, Optiphase Supermix (PerkinElmer) was added to each well and the radioactivity was measured using a MicroBeta Trilux reader (PerkinElmer). All analysis and calculations were performed using GraphPad Prism 6.01. Functional and competition binding data were analysed using non-linear regression and fitted to a sigmoidal dose-response with variable slope according to the following equation: […] where Y is the amount of radioligand bound (cpm) or functional effect, Top denotes maximal asymptotic binding, and Bottom denotes the minimal asymptotic binding. XC50 is either the EC50 or the IC50 value, and X is the logarithm of the test compound concentration. Ki values were calculated from IC50 values using the Cheng–Prusoff equation: […]

Work on `CC(C)C[C@H](CO)Nc1nc(S[C@@H](C)c2ccccc2)nc2nc(N)sc12` [AZD8797] yielded a pKi of 8.14.
